Entries after “also recorded” stand apart in the source; their conditions may differ.
Tests used:
[1] = system: multifunction oxidase (MFO) enzymes; settings: cited from earlier work
insects [2] = settings: relative to DDT where stated; cited from earlier work
animals = settings: prior art; cited from earlier work
Phormia regina = assay: Topical toxicity to Phormia regina, alone and with piperonyl butoxide; type: in vivo; settings: for SR (synergistic ratio), Phormia regina: LD50 alone / LD50 synergized with piperonyl butoxide; for LD50: Phormia regina, alone; for LD50 / Topical LD50, Phormia regina, pb: topical; for toxicity to Phormia: in vivo; for Topical LD50, Phormia regina, pb: synergized with piperonyl butoxide (pb)
Procedure: (§1) The compounds of the present invention were tested for insecticidal activity by standard methods, and compared with the insecticidal activities of DDT and symmetrical analogs of DDT, such as methoxychlor. Toxicological methods for the determination of the topical LD50 values to adult female SNAIDM and PSR houseflies, Musca domestica L. and to Phormia regina, and LC50 values to clex pipiens quinquefas ciatus Say, and Anopheles albimanus Weid mosquitoes were described by Metcalf et al., 44 Bull. World Health Org. 363 (1971). The methods for evaluation of metabolism by mouse liver homogenate and by female RSP housefly and salt-marsh caterpillar larvae Estigmene acrea Drury, were described by Metcalf et al., 5 J. Environ. Sci. Tech. 709 (1971).
(§2) The synergistic ratios or SR values (LD50 alone/ LD50 synergized with piperonyl butoxide) shown in Table II indicate the role of the multifunction oxidase (MFO) in detoxifying the individual compounds. Since piperonyl butoxide serves to block the action of MFO, the synergized LD50 values express the intrinsic toxicity of the compounds. With the detoxifying action of MFO enzymes blocked, the intrinsic toxicity of the compounds can thus be measured.

insects [3] = assay: General insecticidal activity (house flies, blow fly, mosquitoes and other insects); type: in vivo; settings: comparison among the 9 ethers of Table II
Excerpt: (§3) It has been found from metabolic studies on insects, and mice, using a model ecosystem and the methods described in Kapoor, et al., 18(6) J.Agr., Food Chem. 1145 (1970), Metcalf, et al., J. Environ. Sci. Technol. 709 (1971) and also in the copending application of Metcalf et al., "Insecticidal Biodegradable Analogues of DDT", Ser. No. 147,241, filed May 26, 1971, and having a common assignee with the present application, that certain p,p'-disubstituted α-trichloromethylbenzylphenyl ethers with various substituent groups are readily attacked by multifunction oxidase (MFO) enzymes, and thus are substantially biodegradable.
as §1

Culex fatigans larvae = assay: Toxicity to Culex mosquito larvae; type: in vivo
Procedure: as §1

Musca domestica Rsp = assay: Topical toxicity to adult female Rsp (resistant) houseflies, alone and with piperonyl butoxide; type: in vivo, Musca domestica L.; settings: for SR (synergistic ratio), Musca domestica Rsp: LD50 alone / LD50 synergized with piperonyl butoxide; for LD50: Musca domestica, alone; for LD50 / Topical LD50, Musca domestica Rsp, pb: Rsp strain, topical; for Topical LD50, Musca domestica Rsp, pb: synergized with piperonyl butoxide (pb)
Procedure: as §1, §2

Musca domestica SNAIDM = assay: Topical toxicity to adult female SNAIDM (susceptible) houseflies, alone and with piperonyl butoxide; type: in vivo, Musca domestica L.; settings: for SR (synergistic ratio), Musca domestica SNAIDM: LD50 alone / LD50 synergized with piperonyl butoxide; for LD50: Musca domestica, alone; for LD50 / Topical LD50, Musca domestica SNAIDM, pb: SNAIDM strain, topical; for Topical LD50, Musca domestica SNAIDM, pb: synergized with piperonyl butoxide (pb)
Procedure: as §1, §2

[4] = system: Anopheles albimanus larvae; assay: Toxicity to Anopheles albimanus mosquito larvae; type: in vivo
Procedure: as §1

[5] = system: multifunction oxidase (MFO) enzymes; assay: Biodegradability / metabolism by multifunction oxidase (MFO) enzymes (insects, mice, model ecosystem); type: in vitro ADME; settings: inferred from SR values
Excerpt: as §3
as §1, with “709 (1971). […]” for “709 (1971).”

mosquito larvae = assay: Toxicity to mosquito larvae (general statement); settings: in vivo
Procedure: as §1

[6] = cited from earlier work

SMILES	SR (synergistic ratio), Phormia regina (Phormia regina)	LD50 (Phormia regina)	Topical LD50, Phormia regina, pb (Phormia regina)	LC50 Culex fatigans larvae (Culex fatigans larvae)	SR (synergistic ratio), Musca domestica Rsp (Musca domestica Rsp)	LD50 (Musca domestica Rsp)	Topical LD50, Musca domestica Rsp, pb (Musca domestica Rsp)	SR (synergistic ratio), Musca domestica SNAIDM (Musca domestica SNAIDM)	LD50 (Musca domestica SNAIDM)	Topical LD50, Musca domestica SNAIDM, pb (Musca domestica SNAIDM)	LC50 Anopheles albimanus larvae [4]	further results
COc1ccc(C(c2ccc(OC)cc2)C(Cl)(Cl)Cl)cc1 [methoxychlor, 1,1,1-trichloro-,2,2-bis(p-methoxyphenyl)ethane]												biodegradability / attack by MFO enzymes of prior art compounds [1]: readily attacked by MFO enzymes; insecticidal activity of prior art compounds (insects [2]): considerably less insecticidal activity than DDT towards other species of insects; accumulation in animal tissues (animals): not generally accumulated in animal tissues
CCOc1ccc(C(Oc2ccc(OC)cc2)C(Cl)(Cl)Cl)cc1 (stereo not shown) [VII]	1.9	30 mg/kg	16.0 μg per g	0.14 ppm	6.4	90 mg/kg	14.0 μg per g	9.0	45 mg/kg	5.0 μg per g	0.034 ppm	toxicity to Phormia (Phormia regina): quite toxic to Phormia; intrinsic toxicity / insecticidal effectiveness (insects [3]): highest intrinsic toxicity
COc1ccc(OC(c2ccc(OC)cc2)C(Cl)(Cl)Cl)cc1 (stereo not drawn) [II, α-trichloromethyl-p-methoxybenzyl p-methoxyphenyl ether]	1.5	125 mg/kg	82.5 μg per g	0.51 ppm	> 8.7	> 500 mg/kg	57.5 μg per g	22	300 mg/kg	14.0 μg per g	0.10 ppm	detoxication in susceptible and resistant houseflies [5]: rapid detoxication
ClC(Cl)=C(c1ccc(Cl)cc1)c1ccc(Cl)cc1 [DDE, 1,1-dichloro-2,2-bis(p-chlorophenyl) ethylene]												biodegradability / attack by MFO enzymes of prior art compounds [1]: do not function on DDT and its metabolic derivatives DDE and DDD (or TDE)
CSc1ccc(C(c2ccc(SC)cc2)C(Cl)(Cl)Cl)cc1 [methiochlor, 1,1,1-trichloro-2,2-bis-(p-methiophenyl) ethane]												biodegradability / attack by MFO enzymes of prior art compounds [1]: readily attacked by MFO enzymes; insecticidal activity of prior art compounds (insects [2]): considerably less insecticidal activity than DDT towards other species of insects
CCOc1ccc(OC(c2ccc(OCC)cc2)C(Cl)(Cl)Cl)cc1 (stereo not shown) [IV]	1.0	16.5 mg/kg	16.5 μg per g	0.11 ppm	1.7	42 mg/kg	24.5 μg per g	2.1	27 mg/kg	13.0 μg per g	0.07 ppm	toxicity to Phormia (Phormia regina): quite toxic to Phormia; intrinsic toxicity / insecticidal effectiveness (insects [3]): highest intrinsic toxicity
Cc1ccc(OC(c2ccc(C)cc2)C(Cl)(Cl)Cl)cc1 (stereo not shown) [III]	1.35	135 mg/kg	100 μg per g	0.12 ppm	> 3	> 500 mg/kg	145 μg per g	2.9	265 mg/kg	90 μg per g	0.18 ppm	
CCOc1ccc(C(Oc2ccc(Cl)cc2)C(Cl)(Cl)Cl)cc1 (stereo not drawn) [VI, α-trichloromethyl-p-ethoxybenzyl p-chlorophenyl ether]	1.0	31.2 mg/kg	31.2 μg per g	0.067 ppm	2.5	31 mg/kg	12.5 μg per g	1.9	18.5 mg/kg	9.5 μg per g	0.044 ppm	toxicity to Phormia (Phormia regina): only slightly less toxic to Phormia than the p,p'-diethoxy compound IV; intrinsic toxicity / insecticidal effectiveness (insects [3]): highest intrinsic toxicity; also recorded: most effective insecticide generally; toxicity to mosquito larvae (mosquito larvae): only slightly less toxic; housefly LD50 (Musca domestica SNAIDM; comparison among compounds of Table II): lowest LD50 values to the housefly
CCOc1ccc(C(Oc2ccc(C)cc2)C(Cl)(Cl)Cl)cc1 (stereo not shown) [VIII]	1.5	46.2 mg/kg	30.0 μg per g	0.18 ppm	2.9	65 mg/kg	22.0 μg per g	3.5	72.5 mg/kg	20.5 μg per g	0.066 ppm	
Cc1ccc(C(c2ccc(C)cc2)C(Cl)(Cl)Cl)cc1 [methylchlor, 1,1,1-trichloro-2,2-bis(p-methylphenyl)ethane]												insecticidal activity of prior art compounds (insects [2]): considerably less insecticidal activity than DDT towards other species of insects
COc1ccc(C(Oc2ccc(C)cc2)C(Cl)(Cl)Cl)cc1 (stereo not shown) [IX]		> 250 mg/kg	> 250 μg per g	0.65 ppm	> 4	> 500 mg/kg	135 μg per g	> 13	> 500 mg/kg	39.0 μg per g	> 1.0 ppm	
Clc1ccc(C(c2ccc(Cl)cc2)C(Cl)(Cl)Cl)cc1 [DDT, 1,1, 1 trichloro-2,2-bis(p-chlorophenyl)ethane]												accumulation in animal tissues (animals): accumulation in the fatty or lipid tissues of animals; lipid solubility [6]: high lipid solubility; water solubility [6]: very low water solubility
Clc1ccc(OC(c2ccc(Cl)cc2)C(Cl)(Cl)Cl)cc1 (stereo not drawn) [I, α-trichloromethyl-p-chlorobenzyl p-chlorophenyl ether]		> 250 mg/kg	> 250 μg per g	0.035 ppm	> 3.6	> 500 mg/kg	180 μg per g	1.0	90 mg/kg	90 μg per g	0.014 ppm	toxicity to mosquito larvae (mosquito larvae): the most toxic
COc1ccc(C(Oc2ccc(Cl)cc2)C(Cl)(Cl)Cl)cc1 (stereo not shown) [V]	1.8	205 mg/kg	115 μg per g	0.14 ppm	1.6	130 mg/kg	82.5 μg per g	6.3	108 mg/kg	17.0 μg per g	0.038 ppm	
Clc1ccc(C(c2ccc(Cl)cc2)C(Cl)Cl)cc1 [DDD, 1,1-dichloro-2,2-bis(p-chlorophenyl)ethane]												biodegradability / attack by MFO enzymes of prior art compounds [1]: do not function on DDT and its metabolic derivatives DDE and DDD (or TDE)
